Source: US10407467B2, “Polymyxin derivatives and their use in combination therapy together with different antibiotics” (priority 2013, dated 2019)

Key:
[1] = system: Klebsiella pneumoniae ATCC10031; settings: Total daily dosage 10 mg/Kg (sulfate salt), subcutaneous BID
Description: At 1 h, the CFU count was determined from 5 mice and the remaining mice (five per group) were treated with a subcutaneous injection of the drug at +1 and 6 hr post-infection.
Twenty-four hours after infection, the mice were euthanized humanely. The muscle of the right thigh of each animal was harvested, homogenized, serially diluted and plated on Brain Heart Infusion agar+0.5% charcoal (w/v) for CFU determination. Decrease of the total CFU of right thigh as compared to control counts at 24 h post-infection was determined for each dose group.

Escherichia coli [2] = assay: MIC, compound in combination with a second agent (broth microdilution); format: cell-based
Summary of the method: (§1)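 Broth microdilution with inoculum from 18-24 h Mueller-Hinton agar colonies adjusted to 0.5 McFarland, up to four strains per species. Compound combined 1:1 w/w with second agent (e.g. rifampicin), mass as salt form; MIC is total drug concentration. Duplicates, lower value reported if within 2-fold; modal value for repeat tests.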

Pseudomonas aeruginosa [3] = assay: as above; format: cell-based
Summary of the method: as §1

Klebsiella pneumoniae [4] = assay: as above; format: cell-based
Summary of the method: as §1

Acinetobacter baumannii [5] = assay: as above; format: cell-based
Summary of the method: as §1

Escherichia coli [6] = assay: MIC, sole activity (no second agent); format: cell-based
Summary of the method: (§2)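 Compound tested without a second agent in cation-adjusted MHB, up to four strains per species, inoculum at 0.5 McFarland from colonies grown 18-24 h on Mueller-Hinton agar. Run in duplicate, invalid beyond 2-fold disagreement, lower duplicate or modal repeat value given, expressed relative to Polymyxin B.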

Pseudomonas aeruginosa [7] = assay: MIC, sole activity (no second agent); format: cell-based
Summary of the method: as §2

Klebsiella pneumoniae [8] = assay: MIC, sole activity (no second agent); format: cell-based
Summary of the method: as §2

Acinetobacter baumannii [9] = assay: MIC, sole activity (no second agent); format: cell-based; settings: Second Agent none (Table 7B, by row order)
Summary of the method: as §2

HK-2 cell line = assay: In vitro renal cell toxicity assay (resazurin reduction); format: cell-based, human; settings: HK-2 cells, 24 h, resazurin reduction; mean values of up to 6 independent studies
[10] = 1:1 combination with Ciprofloxacin, total drug concentration
[11] = 1:1 combination with Tigecycline, total drug concentration
[12] = 1:1 combination with Vancomycin, total drug concentration
[13] = 1:1 combination with Ciprofloxacin (by row order), total drug concentration
[14] = Ratio of Compound to Rifampicin 1:1, total drug concentration
[15] = Ratio of Compound to Rifampicin 1:3, total drug concentration
[16] = Ratio of Compound to Rifampicin 3:1, total drug concentration
[17] = Second Agent none (Table 7B, by row order)

Colistin [reference compound]
Mean log10 CFU reduction vs. control [1]: 2.60 log10 CFU | MIC E. coli ATCC25922 (Escherichia coli [2]; 1:1 (wt:wt) combination with Rifampicin, MIC = total drug concentration, strain ATCC25922): 0.25 micrograms/mL | MIC E. coli NCTC9001 (Escherichia coli [2]; 1:1 (wt:wt) combination with Rifampicin, MIC = total drug concentration, strain NCTC9001): 0.25 micrograms/mL | MIC E. coli ATCC25922 (Escherichia coli [2]; [10]): ≤0.06 micrograms/mL | MIC E. coli CCUG 59342 (Escherichia coli [2]; [10]): 1 micrograms/mL | MIC E. coli NCTC9001 (Escherichia coli [2]; [10]): ≤0.06 micrograms/mL | MIC E. coli NCTC9001 (Escherichia coli [2]; [11]): 4 micrograms/mL | MIC E. coli NCTC9001 (Escherichia coli [2]; [12]): 4 microgram/mL | MIC E. coli NCTC9001 (Escherichia coli [2]; E. coli NCTC9001, 1:1 combination with Meropenem, total drug concentration): 0.25 micrograms/mL | MIC P. aeruginosa ATCC 27853 (Pseudomonas aeruginosa [3]; 1:1 (wt:wt) combination with Rifampicin, MIC = total drug concentration, strain ATCC 27853): 0.25 micrograms/mL | MIC P. aeruginosa ATCC CRM-9027 (Pseudomonas aeruginosa [3]; 1:1 (wt:wt) combination with Rifampicin, MIC = total drug concentration, strain ATCC CRM-9027): 1 micrograms/mL | MIC P. aeruginosa ATCC-47 (Pseudomonas aeruginosa [3]; 1:1 (wt:wt) combination with Rifampicin, MIC = total drug concentration, strain ATCC-47): 2 micrograms/mL | MIC P. aeruginosa CCUG 59626 (Pseudomonas aeruginosa [3]; 1:1 (wt:wt) combination with Rifampicin, MIC = total drug concentration, strain CCUG 59626): 0.5 micrograms/mL | MIC P. aeruginosa ATCC 27853 (Pseudomonas aeruginosa [3]; [13]): 0.125 micrograms/mL | MIC P. aeruginosa CCUG 59626 (Pseudomonas aeruginosa [3]; [13]): 1 micrograms/mL | MIC P. aeruginosa CCUG 59626 (Pseudomonas aeruginosa [3]; [11]): 1 micrograms/mL | MIC P. aeruginosa CCUG 59626 (Pseudomonas aeruginosa [3]; P. aeruginosa CCUG 59626, 1:1 combination with Meropenem, total drug concentration): 1 micrograms/mL | MIC K. pneumoniae ATCC 4352 (Klebsiella pneumoniae [4]; 1:1 (wt:wt) combination with Rifampicin, MIC = total drug concentration, strain ATCC 4352): 0.5 micrograms/mL | MIC K. pneumoniae ATCC-BAA-2146 (Klebsiella pneumoniae [4]; 1:1 (wt:wt) combination with Rifampicin, MIC = total drug concentration, strain ATCC-BAA-2146): 1 micrograms/mL | MIC K. pneumoniae CCUG-59348 (Klebsiella pneumoniae [4]; 1:1 (wt:wt) combination with Rifampicin, MIC = total drug concentration, strain CCUG-59348): 1 micrograms/mL | MIC K. pneumoniae NCTC 13438 (Klebsiella pneumoniae [4]; 1:1 (wt:wt) combination with Rifampicin, MIC = total drug concentration, strain NCTC 13438): 0.5 micrograms/mL | MIC K. pneumoniae ATCC 4352 (Klebsiella pneumoniae [4]; [13]): ≤0.06 micrograms/mL | MIC K. pneumoniae ATCC BAA-1706 (Klebsiella pneumoniae [4]; [13]): 1 micrograms/mL | MIC K. pneumoniae CCUG 59348 (Klebsiella pneumoniae [4]; [10]): 32 micrograms/mL | MIC K. pneumoniae NCTC 13442 (Klebsiella pneumoniae [4]; [10]): 1 micrograms/mL | MIC K. pneumoniae CCUG 59348 (Klebsiella pneumoniae [4]; [11]): >32 micrograms/mL | MIC K. pneumoniae NCTC 13442 (Klebsiella pneumoniae [4]; [11]): 4 micrograms/mL | MIC K. pneumoniae CCUG 59348 (Klebsiella pneumoniae [4]; [12]): >32 microgram/mL | MIC K. pneumoniae CCUG 59626 (Klebsiella pneumoniae [4]; [12]): 2 microgram/mL | MIC K. pneumoniae NCTC 13442 (Klebsiella pneumoniae [4]; [12]): 8 microgram/mL | MIC K. pneumoniae ATCC BAA-1706 (Klebsiella pneumoniae [4]; K. pneumoniae ATCC BAA-1706, 1:1 combination with Meropenem, total drug concentration): 4 micrograms/mL | MIC K. pneumoniae CCUG 59348 (Klebsiella pneumoniae [4]; K. pneumoniae CCUG 59348, 1:1 combination with Meropenem, total drug concentration): >32 micrograms/mL | MIC K. pneumoniae NCTC 13442 (Klebsiella pneumoniae [4]; K. pneumoniae NCTC 13442, 1:1 combination with Meropenem, total drug concentration): 4 micrograms/mL | MIC K. pneumoniae ATCC-BAA-2146 (Klebsiella pneumoniae [4]; [14]): 1 micrograms/mL | MIC K. pneumoniae CCUG-59348 (Klebsiella pneumoniae [4]; [14]): 2 micrograms/mL | MIC K. pneumoniae NCTC 13438 (Klebsiella pneumoniae [4]; [14]): 2 micrograms/mL | MIC K. pneumoniae ATCC-BAA-2146 (Klebsiella pneumoniae [4]; [15]): 4 micrograms/mL | MIC K. pneumoniae CCUG-59348 (Klebsiella pneumoniae [4]; [15]): 4 micrograms/mL | MIC K. pneumoniae NCTC 13438 (Klebsiella pneumoniae [4]; [15]): 2 micrograms/mL | MIC K. pneumoniae ATCC-BAA-2146 (Klebsiella pneumoniae [4]; [16]): 1 micrograms/mL | MIC K. pneumoniae CCUG-59348 (Klebsiella pneumoniae [4]; [16]): 1 micrograms/mL | MIC K. pneumoniae NCTC 13438 (Klebsiella pneumoniae [4]; [16]): 1 micrograms/mL | MIC A. baumannii ATCC BAA-747 (Acinetobacter baumannii [5]; 1:1 (wt:wt) combination with Rifampicin, MIC = total drug concentration, strain ATCC BAA-747): 0.25 micrograms/mL | MIC A. baumannii CCUG57249 (Acinetobacter baumannii [5]; 1:1 (wt:wt) combination with Rifampicin, MIC = total drug concentration, strain CCUG57249): 0.25 micrograms/mL | MIC A. baumannii NCTC 13423 (Acinetobacter baumannii [5]; 1:1 (wt:wt) combination with Rifampicin, MIC = total drug concentration, strain NCTC 13423): 0.125 micrograms/mL | MIC A. baumannii NCTC 13424 (Acinetobacter baumannii [5]; 1:1 (wt:wt) combination with Rifampicin, MIC = total drug concentration, strain NCTC 13424): 0.25 micrograms/mL | MIC A. baumannii NCTC 13424 (Acinetobacter baumannii [5]; [13]): 0.5 micrograms/mL | MIC E. coli NCTC9001 (Escherichia coli [6]; E. coli NCTC9001, second agent none): 1 micrograms/mL | MIC E. coli NCTC9001 (Escherichia coli [6]; Second Agent none (Table 7A)): 1 microgram/mL | MIC E. coli ATCC25922 (Escherichia coli [6]; Second Agent none (Table 7B)): 1 micrograms/mL | MIC E. coli CCUG 59342 (Escherichia coli [6]; Second Agent none (Table 7B)): 0.5 micrograms/mL | MIC E. coli NCTC9001 (Escherichia coli [6]; Second Agent none (Table 7B)): 2 micrograms/mL | MIC E. coli NCTC9001 (Escherichia coli [6]; Second Agent none (Table 7C)): 1 micrograms/mL | MIC P. aeruginosa CCUG 59626 (Pseudomonas aeruginosa [7]; P. aeruginosa CCUG 59626, second agent none): 0.5 micrograms/mL | MIC P. aeruginosa ATCC 27853 (Pseudomonas aeruginosa [7]; [17]): 0.25 micrograms/mL | MIC P. aeruginosa CCUG 59626 (Pseudomonas aeruginosa [7]; [17]): 0.5 micrograms/mL | MIC P. aeruginosa CCUG 59626 (Pseudomonas aeruginosa [7]; Second Agent none (Table 7C)): 0.5 micrograms/mL | MIC K. pneumoniae ATCC BAA-1706 (Klebsiella pneumoniae [8]; K. pneumoniae ATCC BAA-1706, second agent none): 2 micrograms/mL | MIC K. pneumoniae CCUG 59348 (Klebsiella pneumoniae [8]; K. pneumoniae CCUG 59348, second agent none): 32 micrograms/mL | MIC K. pneumoniae NCTC 13442 (Klebsiella pneumoniae [8]; K. pneumoniae NCTC 13442, second agent none): 2 micrograms/mL | MIC K. pneumoniae CCUG 59348 (Klebsiella pneumoniae [8]; Second Agent none (Table 7A)): 32 microgram/mL | MIC K. pneumoniae CCUG 59626 (Klebsiella pneumoniae [8]; Second Agent none (Table 7A)): 0.5 microgram/mL | MIC K. pneumoniae NCTC 13442 (Klebsiella pneumoniae [8]; Second Agent none (Table 7A)): 2 microgram/mL | MIC K. pneumoniae CCUG 59348 (Klebsiella pneumoniae [8]; Second Agent none (Table 7B)): 32 micrograms/mL | MIC K. pneumoniae NCTC 13442 (Klebsiella pneumoniae [8]; Second Agent none (Table 7B)): 2 micrograms/mL | MIC K. pneumoniae ATCC 4352 (Klebsiella pneumoniae [8]; [17]): 0.5 micrograms/mL | MIC K. pneumoniae ATCC BAA-1706 (Klebsiella pneumoniae [8]; [17]): 2 micrograms/mL | MIC K. pneumoniae CCUG 59348 (Klebsiella pneumoniae [8]; Second Agent none (Table 7C)): 32 micrograms/mL | MIC K. pneumoniae NCTC 13442 (Klebsiella pneumoniae [8]; Second Agent none (Table 7C)): 2 micrograms/mL | MIC A. baumannii NCTC 13424 (Acinetobacter baumannii [9]): 0.5 micrograms/mL | IC50 HK-2 cells (HK-2 cell line): 28 µg/mL
